The values that follow are results of earlier work, collected in patent publication US20190076442A1, “PRESERVATIVE FREE PHARMACEUTICAL COMPOSITION FOR OPHTHALMIC ADMINISTRATION CONTAINING BIMATOPROST AND TIMOLOL” (PHARMATHEN S.A., priority 2016, published 2019).

Where a name gives a salt, the structure may show the parent alone.

As for `CC(C)(C)NC[C@H](O)COc1nsnc1N1CCOCC1` [Timolol maleate], the “Solubility in ethanol (ethyl alcohol)” value was “soluble” and the Solubility in water result is recorded as “soluble”. For the same compound, where the note is “chloroform”, the Solubility in chloroform entry was “sparingly soluble”. The Solubility in cyclohexane entry (cyclohexane) was “insoluble”. Moreover, the Solubility in ether result (ether) is listed as “insoluble”. Under “methanol”, the Solubility in methanol result is recorded as “soluble”. Also, for the setting “propylene glycol”, the “Solubility in propylene glycol” value is “sparingly soluble”.

As to `CCNC(=O)CCC/C=C\C[C@@H]1[C@@H](/C=C/[C@@H](O)CCc2ccccc2)[C@H](O)C[C@@H]1O` [Bimatoprost], the “Solubility in ethanol (ethyl alcohol)” value was “very soluble” and the Solubility in water entry was “slightly soluble”.
